Results as given in patent publication US6384249B1, “Compounds and methods for stabilization of furfural compositions” (Hercules, Inc., priority 2000, dated 2002).
Values joined by “and” are separate entries in the source; they are usually repeats but may differ in a detail not shown here. Equal values may be shown once.

Test: Accelerated air oxidation of furfural, Total Acid Number (TAN) by potentiometric titration
Conditions: 25 psig air, 300° F., 2 hours
Procedure: In this example, distilled furfural was treated with prospective stabilizers, over-pressured with 25 psig of air, heated to 300° F., and held at temperature for 2 hours to allow for an accelerated rate of furfural oxidation. Total Acid Number (TAN) titrations were then conducted by potentiometric titration on the treated furfural samples, an untreated (blank), and a sample of the original distilled material (control), which was not heated to 300° F. The acid number, expressed as mg KOH/g, is a measure of the acid generated during air oxidation of furfural. Performance of inhibitors was expressed as a percent inhibition by the following equation: […]

CCC(C)Nc1ccc(NC(C)CC)cc1 (stereo not shown) [Compound #1]
% Inhibition @ ppmA (250 ppmA stabilizer): 69%
% Inhibition @ ppmA (500 ppmA stabilizer): 106% and 114%
% Inhibition @ ppmA (1000 ppmA stabilizer): 88% and 170%
% Inhibition @ ppmA (2000 ppmA stabilizer): 57%

CCC(C)CC(C)Nc1ccc(Nc2ccccc2)cc1 (stereo not shown) [Compound #2]
% Inhibition @ ppmA (250 ppmA stabilizer): 15%
% Inhibition @ ppmA (500 ppmA stabilizer): 37%
% Inhibition @ ppmA (1000 ppmA stabilizer): 56%

Cc1cc(C(C)(C)C)c(O)c(C(C)(C)C)c1 [Compound #3, 2,6-di-tert-butyl-4-methylphenol]
% Inhibition @ ppmA (250 ppmA stabilizer): −10%
% Inhibition @ ppmA (500 ppmA stabilizer): −5%
% Inhibition @ ppmA (1000 ppmA stabilizer): 12%

CC(C)CC(C)N=C1C=CC(=Nc2ccccc2)C=C1 (stereo not shown) [Compound #4]
% Inhibition @ ppmA (250 ppmA stabilizer): 48%
% Inhibition @ ppmA (500 ppmA stabilizer): 76%
% Inhibition @ ppmA (1000 ppmA stabilizer): 95%
